Data reported in patent publication US6479537B2, “Synergistic ectoparasiticidal methods and compositions” (American Cyanamid Company, priority 2000, dated 2002).
Converted amounts (≈) assume the structure as drawn. “And” between values parts separate entries of the source, which are not always exact repeats. Identical values can stand only once.

Tested on: newly emerged larvae of the blowfly, Lucilia sericata
Test: treated paper/serum bioassay, contact and/or ingestion activity against newly emerged blowfly larvae
Format: in vivo
Conditions: single compound
Method: Contact and/or ingestion activities of compounds against newly emerged larvae of the blowfly, Lucilia sericata, are tested using a treated paper/serum bioassay. In this assay, test compounds diluted to the required concentrations in acetone are applied to filter paper discs and allowed to dry. Bovine serum and newly emerged blowfly larvae are added to the discs and mortality assessed at 24 and 48 hours.

[1] = larval mortality assessed at 48 hours

Molecule | LC50 (Lucilia sericata, 48 h, larval mortality assessed at 48 hours, read-out: Approximate LC50 48 hour) [µg/mL] | Approximate LC50 48 hour [1] | Approximate LC50 24 hour (larval mortality assessed at 24 hours)
CCOCn1c(-c2ccc(Cl)cc2)c(C#N)c(Br)c1C(F)(F)F [C, 4-bromo-2-(p-chlorophenyl)-1-(ethoxymethyl)-5-(trifluoromethyl)pyrrole-3-carbonitrile] | 2.5 (≈ 6.13 µM) | 4.69 µg/mL | –
moxidectin | – | 0.80 µg/mL and 0.63 µg/mL | 1.54 µg/mL and 0.85 µg/mL
